Broadly, the IC50 is the concentration at which inhibition is half-maximal.

Holding throughout (assay type): biochemical
In assay [1] the target is T1, MMP14 (Homo sapiens, UniProt P50281).
T1 construct: purchased R&D Systems 918-MP
As to the kind of experiment: MMP assay (Mca-KPLGL-Dpa-AR-NH2 substrate). The following applies: triplicate, 10-point, 3:1 serial dilution, highest concentration 17.4 µM. As to the method: (§1) In addition to meprins, we also tested 64 hits against related metzincins (MMP-2, MMP-3, MMP-8, MMP-9, MMP-10, MMP-14, ADAM10, and ADAM17) to ascertain general nonpromiscuity against zinc-dependent proteases.
(§2) All assays followed the same general protocol. […] After 30 min incubation at RT, the reactions were started by addition of 5 µL of 2x solutions of substrate (R&D Systems cat#: ES010, Mca-KPLGL-Dpa-AR-NH2, 20 µM). Reactions were incubated at RT for 1 h, after which the fluorescence was measured using the Synergy H4 multimode microplate reader (Biotek Instruments) (λexcitation = 324 nm, λemission = 390 nm).

Assay [2] has as its target T2, MMP10 (Homo sapiens, UniProt P09238).
T2 construct: purchased R&D Systems 910-MP
As to the kind of experiment: MMP assay (Mca-KPLGL-Dpa-AR-NH2 substrate). As to conditions: triplicate, 10-point, 3:1 serial dilution, highest concentration 17.4 µM. As to the method: as §1, §2

For assay [3], the target named is T3, MMP8 (Homo sapiens, UniProt P22894).
T3 construct: purchased R&D Systems 908-MP
T3 sequence (P22894 101-467): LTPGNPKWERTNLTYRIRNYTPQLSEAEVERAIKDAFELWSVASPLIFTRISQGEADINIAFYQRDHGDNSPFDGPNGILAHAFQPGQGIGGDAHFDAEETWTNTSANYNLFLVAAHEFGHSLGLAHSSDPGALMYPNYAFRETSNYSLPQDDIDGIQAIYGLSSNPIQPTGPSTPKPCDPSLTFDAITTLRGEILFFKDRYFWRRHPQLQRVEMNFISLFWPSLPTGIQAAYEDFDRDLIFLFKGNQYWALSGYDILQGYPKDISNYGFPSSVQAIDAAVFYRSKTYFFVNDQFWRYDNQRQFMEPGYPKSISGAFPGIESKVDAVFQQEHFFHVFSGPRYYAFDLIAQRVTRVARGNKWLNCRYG
In words: MMP assay (Mca-KPLGL-Dpa-AR-NH2 substrate). The following applies: triplicate, 10-point, 3:1 serial dilution, highest concentration 17.4 µM. On the procedure: as §1, §2

In assay [4] the target is T4, meprin α (Homo sapiens, UniProt Q16819).
T4 sequence (Q16819 66-593 limits assumed): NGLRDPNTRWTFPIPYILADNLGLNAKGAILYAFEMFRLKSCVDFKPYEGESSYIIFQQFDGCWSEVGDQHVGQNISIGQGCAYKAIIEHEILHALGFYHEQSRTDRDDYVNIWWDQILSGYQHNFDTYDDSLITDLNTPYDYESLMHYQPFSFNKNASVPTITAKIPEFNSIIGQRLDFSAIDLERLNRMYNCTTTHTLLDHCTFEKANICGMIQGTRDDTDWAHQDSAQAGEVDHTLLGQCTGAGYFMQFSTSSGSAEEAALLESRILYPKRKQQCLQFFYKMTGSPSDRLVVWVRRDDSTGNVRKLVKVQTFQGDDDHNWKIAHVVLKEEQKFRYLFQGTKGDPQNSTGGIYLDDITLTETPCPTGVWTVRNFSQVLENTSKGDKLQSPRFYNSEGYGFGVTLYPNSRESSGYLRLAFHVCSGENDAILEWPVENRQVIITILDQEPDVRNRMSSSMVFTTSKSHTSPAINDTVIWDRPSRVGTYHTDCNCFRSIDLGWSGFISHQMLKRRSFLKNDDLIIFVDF
As to the kind of experiment: Meprin α assay, fluorogenic substrate (Mca)-YVADAPK-(K-ε-Dnp), 384 and 1536 well plate formats. As to conditions: for selectivity for meprin α: versus meprin β, in words. The text has this: The meprin α and meprin β assays, which utilize the substrates (Mca)-YVADAPK-(K-ε-Dnp) and (Mca)-EDEDED-(K-ε-Dnp), respectively, have been described previously. To enable an ultra-high-throughput screening (uHTS) campaign, we proceeded to miniaturize both assays to 1536 well plate format (wpf). First, we recapitulated the assays in 1536 well plate using reagents at the same concentrations as in 384 well plate format assays by scaling the volume down by the factor of 2.5.
Both assays followed the same general protocol. A 5 µL measure of 2 × enzyme solution (2.6 and 0.1 nM for meprin α and meprin β, respectively) in assay buffer (50 mM Hepes, 0.01% Brij-35, pH 7.5) was added to solid bottom black 384 low volume plates (Nunc, cat# 264705). Next, 75 nL of test compounds or pharmacological control (actinonin or NFF449) were added to corresponding wells using a 384-pin tool device (V&P Scientific, San Diego, CA, USA). After 30 min incubation at RT, the reactions were started by addition of 5 µL of 2 × solutions of substrates (20 µM, mepin α substrate Mca-YVADAPK-K(Dnp) or meprin β substrate Mca-EDEDED-K(Dnp)). Reactions were incubated at RT for 1 h, after which the fluorescence was measured using the Synergy H4 multimode microplate reader (Biotek Instruments) (λexcitation = 324 nm, λemission = 390 nm).
Both assays followed the same general protocol. A 2 µL portion of 2 × enzyme solution (1.3 and 0.0125 nM for meprin α and meprin β, respectively) in assay buffer (50 mM Hepes, 0.01% Brij-35, pH 7.5) was added to solid bottom black 1536 low volume plates (Corning cat# 7261). Next, 30 nL of test compounds or pharmacological control (actinonin or NFF449) was added to corresponding wells using a 1536 pin tool device (V&P Scientific, San Diego). After 30 min incubation at RT, the reactions were started by addition of 2 µL of 2x solutions of substrates (20 µM, meprin α substrate Mca-YVADAPK-K(Dnp) or meprin β substrate Mca-EDEDED-K(Dnp)). Reactions were incubated at RT for 1 h, after which the fluorescence was measured using the Viewlux multimode microplate reader (Perkin Elmer) (λexcitation = 324 nm, λemission = 390 nm).
The miniaturized 1536-well plate format meprin α and meprin β assays were used to screen a collection of approximately 650,000 compounds (The Scripps Research library, La Jolla, CA, USA) on the automated Kalypsys/GNF platform at The Scripps Research Molecular Screening Center (SRMSC, Jupiter, FL, USA: http://hts.florida.scripps.edu/). Both uHTS campaigns were run separately but in a similar manner. Briefly, the first step was the primary screen of all test compounds as singlicates against the meprin α and meprin β target at a final concentration of 7.0 μM. Next, compounds selected as primary hits were cherry-picked and retested in triplicate against the primary screen target and its antitarget (meprin α for the meprin β screening effort, and vice versa) at a same final concentration of 7.0 μM. The additional counter screen assays against related metzincins (MMP-8, MMP-14, and ADAM10) were performed in triplicate at a final concentration of 7.0 μM. The final step was the titration of selected hits as 10-point, 1:3 serial dilutions in both the target and antitarget assay, starting at a final nominal concentration of 17 μM. […] Wells treated with DMSO only were used as negative controls and 0% inhibition reference. […] All data generated during this effort were uploaded to the SRMSC’s institutional screening database (Assay Explorer, Symyx). Sample to background (S/B) ratios, as well as Z and Z’ values, were calculated on a per plate basis as described 14. Curve fitting and resulting IC50 determinations were performed as previously reported.

Where [5] appears, read: triplicate, 10-point, 3:1 serial dilution, highest concentration 17.4 µM, read-out: Meprin α IC50.

Read-outs that look alike come from different tables or passages of the source.

T2 sequence (P09238 99-476): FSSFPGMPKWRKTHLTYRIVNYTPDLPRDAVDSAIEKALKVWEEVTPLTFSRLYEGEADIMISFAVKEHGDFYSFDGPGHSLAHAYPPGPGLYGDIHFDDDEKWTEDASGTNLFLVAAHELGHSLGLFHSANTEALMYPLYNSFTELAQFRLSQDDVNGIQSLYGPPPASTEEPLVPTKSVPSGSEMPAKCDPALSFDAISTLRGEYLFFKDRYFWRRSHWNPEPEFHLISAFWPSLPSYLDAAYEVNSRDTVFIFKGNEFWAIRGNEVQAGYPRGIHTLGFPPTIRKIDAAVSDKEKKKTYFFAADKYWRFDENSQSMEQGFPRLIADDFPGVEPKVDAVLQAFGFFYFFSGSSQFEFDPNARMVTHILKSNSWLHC

With `O=C(CSc1nnc(NC(=O)c2ccccc2)s1)NO` [Compound 19847], the concentration for half-maximal inhibition (IC50) was over 17 µM in assay [1], over 17 µM in assay [2], over 17 µM in assay [3] and 0.892 µM in assay [4] (setting [5]).

Regarding `O=C(CSc1nnc(NC(=O)COc2ccccc2)s1)NO` [Compound 19848], the concentration for half-maximal inhibition (IC50) was over 17 µM in assay [1], over 17 µM in assay [2], over 17 µM in assay [3] and 0.335 µM in assay [4] (setting [5]).

Regarding `COc1cc(OC)cc(C(=O)CNc2nnc(SCC(=O)NO)s2)c1` [Compound 19849], the IC50 in assay [1] is over 17 µM; in assay [2], over 17 µM; in assay [3], over 17 µM; in assay [4] (setting [5]), 0.218 µM.

Regarding `COc1ccc(-n2c(CSc3ncccn3)nnc2SCC(=O)NO)cc1` [Compound 19855], the IC50 in assay [1], in assay [2] and in assay [3] was over 17 µM in each case. In assay [4], the “selectivity for meprin α” value was “show selectivity for meprin α”.

For the molecule `O=C(CCN(Cc1cccs1)S(=O)(=O)c1ccc([N+](=O)[O-])cc1)NO` [Compound 162799], the IC50 in assay [1] is over 17 µM; in assay [2], over 17 µM; in assay [3] it was over 17 µM; in assay [4] (setting [5]), 0.564 µM. Also, the “selectivity against meprin β and other tested metzincins” value in assay [4] is over 30 fold. The “Meprin α IC50” value in assay [4] (triplicate, 10-point, 3:1 serial dilution, highest concentration 17.4 µM) is on record as “sub-micromolar”. Besides, in assay [4], the “selectivity for meprin α” value is recorded as “show selectivity for meprin α”.

As to `O=C(CCN(Cc1ccccc1)S(=O)(=O)c1ccc(F)cc1)NO` [Compound 162808], the IC50 in assay [1] was over 17 µM; in assay [2], over 17 µM; in assay [3], over 17 µM; in assay [4] (setting [5]), 0.446 µM. Also, the “selectivity against meprin β and other tested metzincins” value in assay [4] is recorded as over 30 fold. In addition, the “Selectivity Fold” value in assay [4] (meprin α versus meprin β) worked out at 38 fold. Further, the “selectivity for meprin α” value in assay [4] is on record as “show selectivity for meprin α”.

On to `O=C(COc1ccc(Cl)cc1Cl)NO` [Compound 1596857], for which the 50% inhibitory concentration (IC50) was over 17 µM in assay [1], over 17 µM in assay [2], over 17 µM in assay [3] and 1.18 µM in assay [4].

Turning to `O=C(Nc1cc(C(=O)Nc2ccc(S(=O)(=O)O)cc2S(=O)(=O)O)cc(C(=O)Nc2ccc(S(=O)(=O)O)cc2S(=O)(=O)O)c1)Nc1cc(C(=O)Nc2ccc(S(=O)(=O)O)cc2S(=O)(=O)O)cc(C(=O)Nc2ccc(S(=O)(=O)O)cc2S(=O)(=O)O)c1` [NFF449], the IC50 in assay [4] (Meprin α 384 wpf, read-out: IC50) was over 100 µM; in assay [4] (Meprin α 1536 wpf, read-out: IC50) it was over 100 µM.

On to `O=[N+]([O-])c1ccc(CN2CCC3(CCc4ccccc43)CC2)o1` [SR207820], for which the IC50 in assay [1], in assay [2], in assay [3] and in assay [4] (setting [5]) was over 17 µM in each case.

For the molecule `O=C(c1ccc(C(=O)O)c([N+](=O)[O-])c1)c1ccc(C(=O)O)c([N+](=O)[O-])c1` [SR355996], the IC50 in assay [1], in assay [2], in assay [3] and in assay [4] (setting [5]) was over 17 µM each time.

For `CSc1nnc2c(n1)OC(c1ccc([N+](=O)[O-])o1)Nc1ccccc1-2` (stereo not drawn) [SR412882], the IC50 in assay [1] is 10.5 µM; in assay [2], 9.7 µM; in assay [3], over 17 µM; in assay [4] (setting [5]) it was over 17 µM.

Source of the values: PMC8000592, “Discovery and Optimization of Selective Inhibitors of Meprin α (Part I)” (Pharmaceuticals, 2021).
